Source: PubChem BioAssay (NCI)
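These data come from cells grown in 96-well plates and exposed to compound for 48 hours at five concentrations. TGI: total growth inhibition.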

Legend:
Test in all cases: NCI tumour cell line growth inhibition, 48 h
P388/ADR leukemia = tested on: P388/ADR leukemia
SN12K1 renal = tested on: SN12K1 renal
P388 leukemia = tested on: P388 leukemia

For `CC1NC(=O)CC(c2ccccc2)N(N=O)C1c1ccccc1` (stereo not drawn), the TGI (P388/ADR leukemia) was greater than 60.2 µM, the TGI (SN12K1 renal) was 48.3 µM and the TGI (P388 leukemia) was greater than 57.8 µM.
